Test results from PubChem BioAssay (NCI).
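Step 1: Grow cells in 96-well plates. Step 2: Expose to compound for 48 hours at 5 concentrations. Step 3: Interpolate endpoints linearly; if unreached, use highest concentration. TGI denotes the concentration required for complete inhibition of growth.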

Assays:
Assay in all cases: NCI-60 cell line screen, 48 h
HT29 colon = system: HT29 colon
HL-60(TB) leukemia = system: HL-60(TB) leukemia
EKVX NSCLC = system: EKVX NSCLC
LOX IMVI melanoma = system: LOX IMVI melanoma
PC-3 prostate = system: PC-3 prostate
DU-145 prostate = system: DU-145 prostate
RXF 393 renal = system: RXF 393 renal
HCT-15 colon = system: HCT-15 colon
HCT-116 colon = system: HCT-116 colon
NCI-H522 lung = system: NCI-H522 lung

Row | Compound | TGI (HT29 colon) [µM] | TGI (HL-60(TB) leukemia) [µM] | TGI (EKVX NSCLC) [µM] | TGI (LOX IMVI melanoma) [µM] | TGI (PC-3 prostate) [µM] | TGI (DU-145 prostate) [µM] | TGI (RXF 393 renal) [µM] | TGI (HCT-15 colon) [µM] | TGI (HCT-116 colon) [µM] | TGI (NCI-H522 lung) [µM]
1 | CCOC(=O)C[n+]1cccc(C2(c3cc4ccccc4[nH]3)OCCO2)c1 | > 100 | > 100 | > 100 | > 100 | > 100 | > 100 | > 100 | > 100 | > 100 | 
2 | COc1cc(C2SC(C)C(=O)N2c2ccc(-c3csc(NS(=O)(=O)c4ccc(Cl)c(OC)c4)n3)cc2)ccc1O (stereo not drawn) | > 100 | 95.7 |  | > 100 | > 100 | > 100 | > 100 | > 100 | > 100 | 47.1
3 | COC1CC(OC2C(C)OC(OC3C(C)OC(OC4C(O)CC(O[C@H]5CC[C@@]6(C)C(=CC[C@]7(O)[C@@H]6C[C@@H](OC(C)=O)[C@@]6(C)[C@]7(O)CC[C@@]6(O)C(C)=O)C5)OC4C)CC3OC)CC2OC)OC(C)C1O (stereo partly drawn) | > 12.5 | > 12.5 | > 12.5 | > 12.5 | > 12.5 | > 12.5 |  | > 12.5 | > 12.5 | > 12.5
4 | COC(OC)C1OCC(n2cc(F)c(=O)[nH]c2=O)C1O (stereo not drawn) | > 100 |  | > 100 | > 100 | > 100 | > 100 | > 100 | > 100 | > 100 | > 100
5 | CCOC(=O)c1nc2ccccc2nc1Oc1ccc(C(=O)OC)cc1 | > 100 |  | > 100 | > 100 | > 100 | > 100 | > 100 | > 100 | > 100 | 
6 | COc1ccc2c(c1)C/C(=C\c1cccc3ccccc13)C2=O | > 100 | > 100 | > 100 | > 100 | > 100 |  | 22.5 | > 100 |  | 
7 | CSC1C(=O)Nc2ccc3ccccc3c21 (stereo not drawn) | > 100 | 10.8 | 38.2 | 31 | 35 | > 100 |  | 38.4 | 29.9 | 7.29
8 | O=C(c1ccccc1)n1cc(-c2ccccc2)c2c(=O)[nH]cnc21 | > 100 |  | > 100 | > 100 | > 100 | > 100 | > 100 | > 100 | > 100 | > 100
9 | O=S(OC12CC3CC(CC(C3)C1)C2)c1cc(Cl)cc(Cl)c1OCc1ccccc1 (stereo not drawn) | > 100 | > 100 | > 100 | > 100 |  |  | > 100 |  | > 100 | 37.1
10 | CCCCCCCC(CC(=O)NC(CO)C(=O)NC(CO)CC(C)C)OC(=O)CC(CCCCCCC)OC(=O)CC(CCCCCCC)OC1OC(C)C(O)C(OC2OC(C)C(O)C(O)C2OC(C)=O)C1O (stereo not drawn) | 13.7 | 10.4 | 27.9 |  | 15.8 | 22.4 | 9.29 |  | 15.1 | 26.8
11 | COc1cc(O)c2c(=O)c3c(C)cccc3n(C)c2c1 | > 10 |  | > 10 | > 10 | > 10 | > 10 | > 10 | > 10 | > 10 | > 10
